From patent US4440757A, “Pharmaceutical composition comprising derivative of aminobenzoic acid for regulating prostaglandin” (priority 1978, dated 1984)

How the values were obtained:
[1] = Acute oral toxicity (Litchfield-Wilcoxon); settings: in vivo, mouse, 7 days
Experimental: The acute oral toxicity of the present substances were examined by using groups of ICR-JCL mouse and orally administering each of the representatives of present substances forcibly as an aqueous solution in distilled water or as an aqueous suspension also in distilled water at predetermined dosages, respectively. After observing the toxicological symptoms, if any, for 6 days, and recording the mortality until 7th day of the administration, LD50 (acute oral) was calculated by the method of Litchfield-Wilcoxon, and autopsy was carried out on dead mice and live mice to obtain informations.

[2] = test system: Salmonella typhimurium TA 98; test: Mutagenicity, reversion assay, TA 98; assay type: cell-based; settings: 5,000 μg/plate; control 13
Experimental: (ii) The strains TA 98 and TA 100 (both are histidine requiring) of Salmonella typhimurium were used in the reversion assay.
Into 2 ml of a soft agar culture medium (the medium itself contains 6 g of sodium chloride and 6 g of agar in 1000 ml of distilled water) to which one tenth by volume of an aqueous solution of 0.5 mM of biotin and 0.5 mM of histidine had been added, 0.1 ml of the bacterial suspension and 0.1 ml of an aqueous solution of the present substance were admixed and the mixture was layered on the minimum agar culture medium. After 2 days of incubation at 37° C., the number of revertant colonies was counted. Furylfuramide (AF-2) was used as the positive control.

male SHR rats = test: Blood pressure and 6-keto PGF1-α in blood of SHR after 14 days; assay type: in vivo, rat (SHR); settings: 100 mg/kg/day p.o.; for Content of 6-keto-PGF1-α in blood: control 3; for Blood pressure: control 195
Experimental: After forcibly administering the present substance (Specimens Nos. 4, 7 and 8) every day for successive 14 days at a rate of 100 mg/kg/day by oral route to groups of male SHR rats, their whole blood was collected on 15th day to obtain the plasma fraction. The ether-extract of the plasma fraction was separated and isolated by thin-layer chromatography and after converting the isolated fraction into methyloximesilyl derivatives, the alteration of 6-keto PGF1-α was examined by gas-chromatography and mass-spectroscopy. In the group to which the present substance was administered, the content of 6-keto PGF1-α was larger together with the reduced blood pressure than in control. This parallelism of the effects leads to the presumption that the effect of the present invention is mediated by prostaglandin.

[3] = test system: cervical aorta of an SD rat, PGI2; test: PGI2 production by cuttings of cervical aorta; assay type: cell-based; settings: 50 microliters of 2% solution into 500 microliters, 10 min
Experimental: After extirpating the cervical aorta of an SD rat under anesthsia, it was washed with Krebs-Linger bicarbonate buffer solution and cut into thin rings, and the cutings were kept in the above-mentioned buffer solution at a rate of 1 mg of wet cuttings per 0.5 ml to produce PGI2.
Into 500 microliters of the thus prepared mixture, 50 micro-liters of an aqueous physiological saline solution containing 2% by weight of the present substance (each of Specimens Nos. 4, 7 and 8) dissolved therein were added and, since the production of PGI2 generally attains to its maximum after 10 min of keeping, a supernatant liquid (2.5 μl) of the mixture was prepared after 10 min of the addition, and then the amount of PGI2 in the supernatant liquid was determined by using the action of suppression of aggregation of the platelets as an index and using ADP as the agglutinating agent, only an aqueous physiological solution being used as control.

[4] = test system: female spontaneously hypertensive rats (SHR); test: Diuretic effect and 6-keto PGF1α in blood; assay type: in vivo, rat (SHR); settings: for Level of 6-keto PGF1α in blood: control 3.0
Experimental: Groups of female spontaneously hypertensive rats (SHR) kept in fasting for 12 hours and abstained from water for 2 hours were treated by forced oral administration of the present substance (each of Specimens Nos. 4, 7 and 8) at respective rates of 1 and 5 g/kg dissolved in 8 ml (per 200 g b.w.) of an aqueous physiological saline solution, control group being administered only with the aqueous physiological saline solution in an amount of 8 ml/200 g b.w.
The amount of excreted urine of the rats was measured every hour from one hour after the administration for 6 times, and the percentages of the volume of urine to the volume of the aqueous physiological saline solution containing the present substance formerly administered (8 ml per 200 g b.w.) are shown in Table 19.
In the next place, after 6 hours of the administration, all animals were sacrificed to collect the whole blood for obtaining its plasma fraction. The ether-extract of the plasma fraction was separated by thin-layer chromatography and after converting the thus separated substances into methyloximesilyl derivatives, the variation of 6 keto PGF1α was examined by gas-chromatography-mass-spectrography.

male Donryu rats = test: Stress ulcer of the stomach and 6-keto PGF1α; assay type: in vivo; settings: 1 g/kg p.o.; for Ulcer-coefficient: 7 hours stress, control 100; for Amount of 6-keto PGF1α: plasma, control 3.3
Experimental: Three groups of male Donryu rats of body weight of 220 to 250 g after 23.5 hours of fasting were administered orally with the present substance (each of Specimen Nos. 4, 7 and 8) at a rate of one gram/kg dissolved in 8 ml (per 200 g body weight) of an aqueous physiological saline solution.
These three groups of rats and another group of rats equally fasted for 23.5 hours and then administered with only the aqueous physiological saline solution were put into the stresscage, and soaked in water at a temperature of 23° C. to the depth of their breast to load the stress on the rats.
After 7 hours of soaking, the rats were pulled out from water and were immediately sacrificed to collect the whole blood, and their stomachs were extirpated. The plasma fraction prepared from the blood was extracted with ether and the etherextract was separated by thin layer chromatography. The separated extract, after converted to the respective methyloximesilyl derivatives, was subjected to gaschromatography-mass spectorography to determine the content of 6-keto PGF1α.
An aqueous 1% solution of formaldehyde was injected into the extirpated stomach and after 10 min of injection, the stomach was cut to be opened at the greater curvature side to examine the mucous membrane of the gastric body. The longer span of each erosion in the mucous membrane of a rat, if any, was measured microscopically, and its sum expressed by millimeter was taken as an ulcer coefficient of the rat.

[5] = 1 g/kg p.o., 2 hours, control 9
[6] = 1 g/kg p.o., 3 hours, control 22
[7] = 1 g/kg p.o., 4 hours, control 26
[8] = 1 g/kg p.o., 5 hours, control 28
[9] = 1 g/kg p.o., 6 hours, control 30
[10] = 5 g/kg p.o., 2 hours, control 9
[11] = 5 g/kg p.o., 3 hours, control 22
[12] = 5 g/kg p.o., 4 hours, control 26
[13] = 5 g/kg p.o., 5 hours, control 28
[14] = 5 g/kg p.o., 6 hours, control 30

Structure (SMILES) | LD50 at 168 h [1] [mg/kg] | Number of revertant colonies TA 98 [2] [number per plate] | Content of 6-keto-PGF1-α in blood (male SHR rats) [ng/mL] | Blood pressure (male SHR rats) [mmHg] | production of PGI2 by cuttings of cervical aorta (FIG. 15) [3] | Volume of urine ([4]; 1 g/kg p.o., 1 hour, control 2) [%] | Volume of urine [4, 5] [%] | Volume of urine [4, 6] [%] | Volume of urine [4, 7] [%] | Volume of urine [4, 8] [%] | Level of 6-keto PGF1α in blood ([4]; 1 g/kg p.o., 6 hours) [ng/mL] | Volume of urine [4, 9] [%] | Volume of urine ([4]; 5 g/kg p.o., 1 hour, control 2) [%] | Volume of urine [4, 10] [%] | Volume of urine [4, 11] [%] | Volume of urine [4, 12] [%] | Volume of urine [4, 13] [%] | Volume of urine [4, 14] [%] | Ulcer-coefficient (male Donryu rats) [%] | Amount of 6-keto PGF1α (male Donryu rats) [ng/mL] | further results
O=C(O)c1ccc(NC2O[C@H](CO)[C@@H](O)[C@H](O)[C@@H]2O)cc1 (stereo partly drawn) [Specimen No. 4, Sodium p-aminobenzoate-N--D-mannoside] | > 10000 | 5 | 7 | 155 | raised the production of PGI2 | 6 | 40 | 46 | 50 | 60 | 3.3 | 63 | 7 | 40 | 50 | 52 | 78 | 91 | 62 | 3.8 | Level of 6-keto PGF1α in blood ([4]; 5 g/kg p.o., 6 hours): 3.5 ng/mL
O=C(O)c1ccc(NC2OC[C@@H](O)[C@H](O)[C@H]2O)cc1 (stereo partly drawn) [Specimen No. 7, Sodium p-aminobenzoate-N--D-xyloside] | 11800 | 4 | 6.5 | 160 | raised the production of PGI2 | 4 | 38 | 45 | 48 | 63 | 3.5 | 72 | 5 | 50 | 66 | 80 | 92 | 100 | 58 | 3.9 | –
C[C@@H]1OC(Nc2ccc(C(=O)O)cc2)[C@H](O)[C@H](O)[C@H]1O (stereo partly drawn) [Specimen No. 8, Sodium p-aminobenzoate-N--L-rhamnoside] | 12800 | 4 | 7 | 150 | raised the production of PGI2 | 5 | 39 | 47 | 50 | 65 | 3.2 | 68 | 5 | 43 | 60 | 70 | 77 | 93 | 55 | 3.6 | Level of 6-keto PGF1α in blood ([4]; 5 g/kg p.o., 6 hours): 3.7 ng/mL
